In ChEMBL document CHEMBL4295262, “Evaluation of the utility of stem-cell derived cardiomyocytes for drug proarrhythmic potential” (2019):

Assays:
Settings in all cases: human, ipsc-cm
[1] = (§1) Electrical activity assay on cell lines treated with a given drug. DMSO was used as a vehicle and a control, unblinded dofetilide was used as a control.
[2] = as §1; remark: listed apart in the source
[3] = as §1; assay type: ADME, cell-based
[4] = as §1; remark: listed apart in the source
[5] = as §1; assay type: ADME, cell-based; remark: listed apart in the source
[6] = as §1; remark: listed apart in the source
[7] = 0.09507 µM, concentration (um) 0.0950736 uM
[8] = 0.3004 µM, concentration (um) 0.300433 uM
[9] = 0.9494 µM, concentration (um) 0.949367 uM
[10] = 0.001 µM, concentration (um) 0.001 uM
[11] = 0.01 µM, concentration (um) 0.01 uM
[12] = 0.1 µM, concentration (um) 0.1 uM

## CN1CCN(C2=Nc3cc(Cl)ccc3Nc3ccccc32)CC1 [CLOZAPINE]
[1]; 0.09507 µM
  FPD measurement: 1 Values Out Of 1 Were Excluded Due To Quiescence Or 0 Fpdc
  FPDc: 1 Values Out Of 1 Were Excluded Due To Quiescence Or 0 Fpdc
[1]; 0.3004 µM
  FPD measurement: 1 Values Out Of 1 Were Excluded Due To Quiescence Or 0 Fpdc
  FPDc: 1 Values Out Of 1 Were Excluded Due To Quiescence Or 0 Fpdc
[1]; 0.9494 µM
  FPD measurement: 1 Values Out Of 1 Were Excluded Due To Quiescence Or 0 Fpdc
  FPDc: 1 Values Out Of 1 Were Excluded Due To Quiescence Or 0 Fpdc
[1]; 3 µM
  FPD measurement: 1 Values Out Of 1 Were Excluded Due To Quiescence Or 0 Fpdc
  FPDc: 1 Values Out Of 1 Were Excluded Due To Quiescence Or 0 Fpdc
[2]; 0.09507 µM
  APDc: 47.87
  FPD measurement: 47.87 FPDc
[2]; 0.3004 µM
  APDc: 55.24
  FPD measurement: 55.24 FPDc
[2]; 0.9494 µM
  APDc: 62.1
  FPD measurement: 62.1 FPDc
[2]; 3 µM
  APDc: 73.69
  FPD measurement: 73.69 FPDc
[3]; [7]
  FPD measurement: 5 Values Out Of 5 Were Excluded Due To Quiescence Or 0 Apdc
  FPDc: 25.04
[3]; [8]
  FPD measurement: 5 Values Out Of 5 Were Excluded Due To Quiescence Or 0 Apdc
  FPDc: 24.94
[3]; [9]
  FPD measurement: 5 Values Out Of 5 Were Excluded Due To Quiescence Or 0 Apdc
  FPDc: 25.07
[3]; 3 µM, concentration (um) 3 uM
  FPD measurement: 5 Values Out Of 5 Were Excluded Due To Quiescence Or 0 Apdc
  FPDc: 22.78
[4]; 0.09507 µM
  FPDc: 68.88
[4]; 0.3004 µM
  FPD measurement: 5 Values Out Of 5 Were Excluded Due To Quiescence Or 0 Apdc
  FPDc: 59.23
[4]; 0.9494 µM
  FPD measurement: 5 Values Out Of 5 Were Excluded Due To Quiescence Or 0 Apdc
  FPDc: 63.68
[4]; 3 µM
  FPDc: 65.29

## CC(C)(C)c1ccc(C(O)CCCN2CCC(C(O)(c3ccccc3)c3ccccc3)CC2)cc1 (stereo not drawn) [TERFENADINE]
[1]; 0.001 µM
  FPD measurement: 1 Values Out Of 1 Were Excluded Due To Quiescence Or 0 Fpdc
  FPDc: 1 Values Out Of 1 Were Excluded Due To Quiescence Or 0 Fpdc
[1]; 0.01 µM
  FPD measurement: 1 Values Out Of 1 Were Excluded Due To Quiescence Or 0 Fpdc
  FPDc: 1 Values Out Of 1 Were Excluded Due To Quiescence Or 0 Fpdc
[1]; 0.1 µM
  FPD measurement: 1 Values Out Of 1 Were Excluded Due To Quiescence Or 0 Fpdc
  FPDc: 1 Values Out Of 1 Were Excluded Due To Quiescence Or 0 Fpdc
[1]; 1 µM
  FPD measurement: 1 Values Out Of 1 Were Excluded Due To Quiescence Or 0 Fpdc
  FPDc: 1 Values Out Of 1 Were Excluded Due To Quiescence Or 0 Fpdc
[5]; [10]
  FPD measurement: 48.77 FPDc
  FPDc: 6 Values Out Of 6 Were Excluded Due To Quiescence Or 0 Fpdc
[5]; [11]
  FPD measurement: 52.11 FPDc
  FPDc: 6 Values Out Of 6 Were Excluded Due To Quiescence Or 0 Fpdc
[5]; [12]
  FPD measurement: 71.18 FPDc
  FPDc: 6 Values Out Of 6 Were Excluded Due To Quiescence Or 0 Fpdc
[5]; 1 µM, concentration (um) 1 uM
  FPDc: 6 Values Out Of 6 Were Excluded Due To Quiescence Or 0 Fpdc
[3]; [10]
  FPD measurement: 5 Values Out Of 5 Were Excluded Due To Quiescence Or 0 Apdc
  FPDc: 20.04
[3]; [11]
  FPD measurement: 5 Values Out Of 5 Were Excluded Due To Quiescence Or 0 Apdc
  FPDc: 19.19
[3]; [12]
  FPD measurement: 5 Values Out Of 5 Were Excluded Due To Quiescence Or 0 Apdc
  FPDc: 20.37
[3]; 1 µM, concentration (um) 1 uM
  FPD measurement: 5 Values Out Of 5 Were Excluded Due To Quiescence Or 0 Apdc
  FPDc: 19.11
[4]; 0.001 µM
  FPDc: 67.41
[4]; 0.01 µM
  FPDc: 65.79
[4]; 0.1 µM
  FPDc: 66.77
[4]; 1 µM
  FPDc: 63.51

## COC(=O)C1=C(C)NC(C)=C(C(=O)OC)C1c1ccccc1[N+](=O)[O-] [NIFEDIPINE]
[1]; 0.001 µM
  FPD measurement: 1 Values Out Of 1 Were Excluded Due To Quiescence Or 0 Fpdc
  FPDc: 1 Values Out Of 1 Were Excluded Due To Quiescence Or 0 Fpdc
[1]; 0.01 µM
  FPD measurement: 1 Values Out Of 1 Were Excluded Due To Quiescence Or 0 Fpdc
  FPDc: 1 Values Out Of 1 Were Excluded Due To Quiescence Or 0 Fpdc
[1]; 0.1 µM
  FPD measurement: 1 Values Out Of 1 Were Excluded Due To Quiescence Or 0 Fpdc
  FPDc: 1 Values Out Of 1 Were Excluded Due To Quiescence Or 0 Fpdc
[1]; 1 µM
  FPD measurement: 1 Values Out Of 1 Were Excluded Due To Quiescence Or 0 Fpdc
  FPDc: 1 Values Out Of 1 Were Excluded Due To Quiescence Or 0 Fpdc
[2]; 0.001 µM
  APDc: 59.3
  FPD measurement: 59.3 FPDc
[2]; 0.01 µM
  APDc: 57.63
  FPD measurement: 57.63 FPDc
[2]; 0.1 µM
  APDc: More Than Half The Wells Had A Quiescence Event Or Apdc Readings Of 0
  FPD measurement: More Than Half The Wells Had A Quiescence Event Or Apdc Readings Of 0
[2]; 1 µM
  APDc: More Than Half The Wells Had A Quiescence Event Or Apdc Readings Of 0
  FPD measurement: More Than Half The Wells Had A Quiescence Event Or Apdc Readings Of 0
[3]; [10]
  FPD measurement: 5 Values Out Of 5 Were Excluded Due To Quiescence Or 0 Apdc
  FPDc: 21.76
[3]; [11]
  FPD measurement: 5 Values Out Of 5 Were Excluded Due To Quiescence Or 0 Apdc
  FPDc: 17.1
[3]; [12]
  FPD measurement: More Than Half The Wells Had A Quiescence Event Or Apdc Readings Of 0
  FPDc: More Than Half The Wells Had A Quiescence Event Or Fpdc Readings Of 0
[3]; 1 µM, concentration (um) 1 uM
  FPD measurement: More Than Half The Wells Had A Quiescence Event Or Apdc Readings Of 0
  FPDc: More Than Half The Wells Had A Quiescence Event Or Fpdc Readings Of 0
[4]; 0.001 µM
  FPDc: 73.26
[4]; 0.01 µM
  FPDc: 70.54
[4]; 0.1 µM
  FPDc: 51.56
[4]; 1 µM
  FPDc: 21.94
[6]; 0.001 µM
  FPD measurement: 50.88 FPDc
  FPDc: 50.88
[6]; 0.01 µM
  FPD measurement: 43.95 FPDc
  FPDc: 43.95
[6]; 0.1 µM
  FPD measurement: 24.94 FPDc
  FPDc: 24.94
[6]; 1 µM
  FPD measurement: 16.23 FPDc
  FPDc: 16.23
